From US20260284207A1, “COMPOUND FOR USE AS A PEPTIDE BINDER SPECIFICALLY BINDING TO THE UBIQUITIN LIGASE ADAPTER FBXO31” (ETH ZÜRICH, priority 2022, published 2026)
fluorescein = N-terminal fluorescein label, coupled as FITC

Assays:
K562 cells = assay: Fluorescent reporter protein stability assay in nucleofected K562 cells; assay type: cell-based, human; settings: sfGFP carrying a primary C-terminal amide
Procedure: HEK293T cells were cultured in DMEM containing Glutamax (Thermo Fisher Scientific) and K562 cells were cultured in RPMI 1640 containing Glutamax (Thermo Fisher Scientific) under standard conditions. Growth media were further supplemented with 10% (v/v) Fetal Bovine Serum (Thermo Fisher Scientific) and 100 U/ml Penicillin-Streptomycin (Thermo Fisher Scientific). Stably transduced cells were selected using 2 μg/ml Puromycin (Thermo Fisher Scientific), 500 μg/ml Geneticin (Thermo Fisher Scientific) or 10 μg/ml Blasticidin (Thermo Fisher Scientific) starting two days after transduction. Induction of doxycycline-dependent vectors was performed using 500 ng/ml doxycycline (Merck) every 48 hours. […]
For measuring stability of recombinant or semi-synthetic proteins, 1.5-2.0×10^5 cells were nucleofected with 200 pmol of protein in 20 μl cuvettes using a 4D nucleofector device (Lonza) to according the manufacturer's recommendations. Following protein delivery, cells were left to recover at 37° C. for 30-45 minutes before measuring initial mean fluorescence intensity values (to) on a Attune N×T Flow Cytometer (Thermo Fisher Scientific). […] Baseline-fluorescence values of mock nucleofected cells receiving no protein were measured and subtracted for each time point and baseline-corrected fluorescence values were normalized to t0. […]

FBXO31 = target: T1, FBXO31 (Homo sapiens, UniProt Q5XUX0); assay: Competitive fluorescence polarization anisotropy (displacement of fluorescent peptide probes); assay type: binding; settings: probes FL-lib-SVV-NH2, FL-CycD1-NH2, FL-Pep2-NH2; 2 nM probe, 200 nM FBXO31
T1 construct: histidine tag (Ulp1-cleavable) (cleaved yes); made in house; host or cells: bacteria (pET28b expression vector)
T1 sequence (Q5XUX0 whole entry): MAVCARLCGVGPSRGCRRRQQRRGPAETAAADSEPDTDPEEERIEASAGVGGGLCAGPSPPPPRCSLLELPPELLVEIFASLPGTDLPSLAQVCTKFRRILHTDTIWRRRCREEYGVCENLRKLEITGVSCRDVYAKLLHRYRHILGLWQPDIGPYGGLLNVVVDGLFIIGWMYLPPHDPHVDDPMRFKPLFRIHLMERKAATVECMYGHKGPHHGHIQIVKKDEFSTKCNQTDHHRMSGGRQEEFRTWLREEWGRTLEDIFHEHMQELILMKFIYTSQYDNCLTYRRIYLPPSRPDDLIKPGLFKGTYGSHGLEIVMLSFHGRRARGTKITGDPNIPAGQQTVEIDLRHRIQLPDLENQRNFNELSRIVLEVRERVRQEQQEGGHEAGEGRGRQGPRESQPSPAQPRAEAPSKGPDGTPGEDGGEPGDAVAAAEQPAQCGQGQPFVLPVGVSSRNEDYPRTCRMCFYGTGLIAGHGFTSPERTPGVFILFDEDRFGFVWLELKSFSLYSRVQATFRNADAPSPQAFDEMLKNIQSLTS
T1 sequence (P63208 whole entry partner): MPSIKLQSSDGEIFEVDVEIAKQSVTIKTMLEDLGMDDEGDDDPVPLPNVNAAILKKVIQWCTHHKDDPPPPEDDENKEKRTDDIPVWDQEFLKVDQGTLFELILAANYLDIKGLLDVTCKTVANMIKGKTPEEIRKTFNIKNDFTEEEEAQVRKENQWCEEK
Procedure: To test whether a lower molecular weight probe could be derived based on these rules, the C-terminally amidated tripeptide Ser-Val-Val-NH2 (302.37 g/mol) was tested.
Increasing concentrations of recombinant FBXO31/SKP1 complexes were mixed with 20 nM fluorescein-labeled peptides in FPA-buffer (150 mM NaCl, 25 mM HEPES, pH 7.5) and incubated for 30 minutes at room temperature. Fluorescence polarization was measured on a Victor Nivo Plate Reader (Perkin Elmer). Following subtraction of baseline signal, polarization levels were normalized to the highest signal of each pair of amidated and non-amidated peptides. Binding curves were fitted by least squares regression and half-maximal binding concentrations were extracted using Prism 9 (Graphpad) assuming one-site binding and no contribution from unspecific interaction. Competition binding assays were performed in the same way using a fixed ratio of 2 nM fluorescent probe and 200 nM FBXO31 and 0.67 nM to 100 μM competing ligand.

[1] = target: T2, recombinant FBXO31/SKP1 complexes (Homo sapiens, UniProt Q5XUX0); assay: Fluorescence polarization (FP) binding of fluorescein-labeled peptides to recombinant FBXO31/SKP1; settings: wild type FBXO31/SKP1
T2 construct: histidine tag (Ulp1-cleavable) (cleaved yes); made in house; host or cells: bacteria (pET28b expression vector)
T2 sequence (Q5XUX0 whole entry): as the sequence (Q5XUX0 whole entry) above
T2 sequence (P63208 whole entry partner): as the sequence (P63208 whole entry partner) above
Procedure: It was then tested whether SCF/FBXO31 directly binds and ubiquitylates amidated clients, or whether it plays an indirect role in CTAP clearance. To this end, recombinant FBXO31 in complex with the binding partner SKP1 was purified and its affinity for various peptides was measured by fluorescence polarization (FP).
In this regard, it was first tested whether FBXO31 specifically binds C-terminal amides rather than side chain amides in asparagine or glutamine. […] Hydrophobic residues were most strongly bound, with X—F—CONH2 as the best substrate (KD≈6 nM), followed by other and then uncharged and charged hydrophilic side chains.
Codon-optimized CDNAs of SKP1 and FBXO31 were generated by gene synthesis (Integrated DNA Technologies) and cloned into the bacterial expression vector pET28b. Expression was performed at 18° C. overnight in presence of 0.5 mM IPTG. Following bacterial cell lysis by sonication in buffer NBA (200 mM NaCl, 50 mM HEPES, 25 mM imidazole, 5 mM DTT freshly added, pH 8.0), recombinant protein was enriched on a HisTrap FF column (Cytiva) by elution with 250 mM imidazole. […]
Increasing concentrations of recombinant FBXO31/SKP1 complexes were mixed with 20 nM fluorescein-labeled peptides in FPA-buffer (150 mM NaCl, 25 mM HEPES, pH 7.5) and incubated for 30 minutes at room temperature. Fluorescence polarization was measured on a Victor Nivo Plate Reader (Perkin Elmer). […]

| Compound | effect of inhibitor on destabilization of C-terminally amidated sfGFP (K562 cells) | other results |
| --- | --- | --- |
| CC[C@H](C)[C@H](NC(=O)[C@H]([C@@H](C)CC)N(C)C(C)=O)C(=O)N[C@H](C(=O)N[C@@H](CC(C)C)C(=O)[C@@]1(C)CO1)[C@@H](C)O [epoxomicin] | fully blunted |  |
| NS(=O)(=O)OC[C@H]1C[C@@H](Nc2ccnc3cc(-c4cccc(SC(F)(F)F)c4)nn23)[C@H](O)[C@@H]1O [TAK243] | fully blunted |  |
| Ser-Val-Val-NH2 |  | displacement of fluorescent peptide probes from FBXO31 (FBXO31): efficiently displace |
| [Fluorescein]-KKYRYDVPDYSVV-NH2 (fluorescein-KKYRYDVPDYSVV-NH2) [FL-lib-SVV-NH2] |  | binding/affinity for FBXO31 (in words) [1]: high affinity |
